Measurements: PMC5936891, “A focused library synthesis and cytotoxicity of quinones derived from the natural product bolinaquinone” (Royal Society Open Science, 2018)
Entries after “also recorded” stand apart in the source; their conditions may differ. Like-named read-outs stand apart in the source and are kept apart here.

What was measured:
[1] = system: HT29 (colon carcinoma); experiment: MTT in vitro growth inhibition assay, HT29; assay type: cell-based; details: Homo sapiens; for inhibition at 25 µM: HT-29, 25 µM of drug, 72 h, read-out: Percentage of Cell Growth Inhibition HT29
Source text: (§1) With the desired bolinaquinone analogues 12–43 in hand, we examined their cytotoxicity against a panel of 11 tumour cell lines: HT29 (colon carcinoma), U87 and SJ-G2 (glioblastoma), MCF-7 (breast carcinoma), A2780 (ovarian carcinoma), H460 (lung carcinoma), A431 (skin carcinoma), Du145 (prostate carcinoma), BE2-C (neuroblastoma), MIA (pancreatic carcinoma), SMA (spontaneous murine astrocytoma) and a normal breast cell line (MCF10A). The inclusion of the MCF-10A cell line allowed a determination of a crude measure of relative toxicity while noting that the ultimate arbiter of toxicity requires in vivo evaluation. All analogues were initially screened at a 25 µM drug concentration.
(§2) Stock solutions were prepared as follows and stored at −20°C: drugs were stored as 40 mM solutions in DMSO. All cell lines were cultured in a humidified atmosphere 5% CO2 at 37°C. The cancer cell lines were maintained in Dulbecco's modified Eagle's medium (DMEM) (Trace Biosciences, Australia) supplemented with 10% fetal bovine serum, 10 mM sodium bicarbonate, penicillin (100 IU ml^−1), streptomycin (100 µg ml^−1) and glutamine (4 mM). The non-cancer MCF10A cell line was cultured in DMEM:F12 (1 : 1) cell culture media, 5% heat-inactivated horse serum, supplemented with penicillin (50 IU ml^−1), streptomycin (50 µg ml^−1), 20 mM Hepes, L-glutamine (2 mM), epidermal growth factor (20 ng ml^−1), hydrocortisone (500 ng ml^−1), cholera toxin (100 ng ml^−1) and insulin (10 ug ml^−1).
(§3) Cells in logarithmic growth were transferred to 96-well plates. Cytotoxicity was determined by plating cells in duplicate in 100 µl medium at a density of 2500–4000 cells per well. On day 0 (24 h after plating), when the cells were in logarithmic growth, 100 μl of medium with or without the test agent was added to each well. After 72 h, drug exposure growth inhibitory effects were evaluated using the MTT (3-[4,5-dimethylthiazol-2-yl]-2,5-diphenyl-tetrazolium bromide) assay and the absorbance read at 540 nm. Percentage growth inhibition was determined at a fixed drug concentration of 25 µM. A value of 100% is indicative of complete cell growth inhibition. Those analogues showing appreciable percentage growth inhibition underwent further dose–response analysis allowing for the calculation of a GI50 value. This value is the drug concentration at which cell growth is 50% inhibited based on the difference between the optical density values on day 0 and those at the end of drug exposure.

[2] = system: U87 (glioblastoma); experiment: MTT in vitro growth inhibition assay, U87; assay type: cell-based; details: for inhibition at 25 µM: 25 µM of drug, 72 h, read-out: Percentage of Cell Growth Inhibition U87
Source text: as §1, §2, §3

[3] = system: MCF-7 (breast carcinoma); experiment: MTT in vitro growth inhibition assay, MCF-7; assay type: cell-based; details: Homo sapiens; for inhibition at 25 µM: MCF7, 25 µM of drug, 72 h, read-out: Percentage of Cell Growth Inhibition MCF-7
Source text: as §1, §2, §3

[4] = system: A2780 (ovarian carcinoma); experiment: MTT in vitro growth inhibition assay, A2780; assay type: cell-based; details: Homo sapiens; for inhibition at 25 µM: 25 µM of drug, 72 h, read-out: Percentage of Cell Growth Inhibition A2780
Source text: as §1, §2, §3

[5] = system: H460 (lung carcinoma); experiment: MTT in vitro growth inhibition assay, H460; assay type: cell-based; details: Homo sapiens; for inhibition at 25 µM: NCI-H460, 25 µM of drug, 72 h, read-out: Percentage of Cell Growth Inhibition H460
Source text: as §1, §2, §3

[6] = system: A431 (skin carcinoma); experiment: MTT in vitro growth inhibition assay, A431; assay type: cell-based; details: Homo sapiens; for inhibition at 25 µM: A-431, 25 µM of drug, 72 h, read-out: Percentage of Cell Growth Inhibition A431
Source text: as §1, §2, §3

[7] = system: Du145 (prostate carcinoma); experiment: MTT in vitro growth inhibition assay, Du145; assay type: cell-based; details: Homo sapiens; for inhibition at 25 µM: DU-145, 25 µM of drug, 72 h, read-out: Percentage of Cell Growth Inhibition Du145
Source text: as §1, §2, §3

[8] = system: BE2-C (neuroblastoma); experiment: MTT in vitro growth inhibition assay, BE2-C; assay type: cell-based; details: Homo sapiens, BE(2)-C, 72 h; for inhibition at 25 µM: 25 µM of drug, read-out: Percentage of Cell Growth Inhibition BE2-C
Source text: as §1, §2, §3

[9] = system: SJ-G2 (glioblastoma); experiment: MTT in vitro growth inhibition assay, SJ-G2; assay type: cell-based; details: for inhibition at 25 µM: 25 µM of drug, 72 h, read-out: Percentage of Cell Growth Inhibition SJ-G2
Source text: as §1, §2, §3

[10] = system: MIA (pancreatic carcinoma); experiment: MTT in vitro growth inhibition assay, MIA; assay type: cell-based; details: for inhibition at 25 µM: 25 µM of drug, 72 h, read-out: Percentage of Cell Growth Inhibition MIA
Source text: as §1, §2, §3

[11] = system: SMA (spontaneous murine astrocytoma); experiment: MTT in vitro growth inhibition assay, SMA; assay type: cell-based; details: Mus musculus; for inhibition at 25 µM: 25 µM of drug, 72 h, read-out: Percentage of Cell Growth Inhibition SMA
Source text: as §1, §2, §3

[12] = system: MCF10A (normal breast cell line); experiment: MTT in vitro growth inhibition assay, MCF10A; assay type: cell-based; details: Homo sapiens, MCF-10A; for inhibition at 25 µM: 25 µM of drug, 72 h, read-out: Percentage of Cell Growth Inhibition MCF10A
Source text: as §1, §2, §3

[13] = system: panel of 11 cancer cell lines and one normal cell line; experiment: Cytotoxicity across the whole cell line panel (MTT); assay type: cell-based; details: for activity at the initial screening concentration (to proceed to GI50 determination): 25 µM single dose
Source text: as §1, §2, §3

For COC1=CC(=O)C(OC)=C(c2cc(OC)ccc2OC)C1=O [compound 21, 2,5-Dimethoxy-3-(2,5-dimethoxyphenyl)cyclohexa-2,5-diene-1,4-dione], the inhibition at 25 µM [1] was 16 ± 4%, the inhibition at 25 µM [2] was 14 ± 2% and the inhibition at 25 µM [3] was 13 ± 6%. It also gave an inhibition at 25 µM [4] of 26 ± 9%, an inhibition at 25 µM [5] of 17 ± 7% and an inhibition at 25 µM [6] of 12 ± 3%. The inhibition at 25 µM [7] was 17 ± 5%, the inhibition at 25 µM [8] was 49 ± 11% and the inhibition at 25 µM [9] was 16 ± 7%. It also gave an inhibition at 25 µM [10] of 15 ± 2%, an inhibition at 25 µM [11] of 26 ± 4% and an inhibition at 25 µM [12] of less than 10%. The “activity at the initial screening concentration (to proceed to GI50 determination)” value (“activity” for short) [13] was “not sufficiently active”.
In the case of COC1=CC(=O)C(OC)=C(c2cccc(OC)c2OC)C1=O [compound 22, 2,5-Dimethoxy-3-(2,3-dimethoxyphenyl)cyclohexa-2,5-diene-1,4-dione], the inhibition at 25 µM [1] is reported as 15 ± 1%, the inhibition at 25 µM [2] is reported as 14 ± 8% and the inhibition at 25 µM [3] is reported as 16 ± 10%. For the same compound, the inhibition at 25 µM [4] was 44 ± 8%, the inhibition at 25 µM [5] was 20 ± 2% and the inhibition at 25 µM [6] was 35 ± 5%. For the same compound, the inhibition at 25 µM [7] was 23 ± 9%, the inhibition at 25 µM [8] was 75 ± 8% and the inhibition at 25 µM [9] was 23 ± 10%. It also gave an inhibition at 25 µM [10] of 24 ± 4%, an inhibition at 25 µM [11] of 31 ± 7% and an inhibition at 25 µM [12] of 18 ± 2%. For the same compound, the “activity” value [13] was “not sufficiently active” and the melting point was 122 to 125 °C.
Work on COC1=CC(=O)C(OC)=C(c2ccc(OC)c(OC)c2)C1=O [compound 23, 2,5-Dimethoxy-3-(3,4-dimethoxyphenyl)cyclohexa-2,5-diene-1,4-dione] yielded an inhibition at 25 µM [1] greater than 100%, a GI50 ([1]; HT-29, 72 h drug exposure) of 11 ± 0.17 µM and an inhibition at 25 µM [2] greater than 100%. It also gave a GI50 ([2]; 72 h drug exposure) of 9.5 ± 1.2 µM, an inhibition at 25 µM [3] greater than 100% and a GI50 ([3]; MCF7, 72 h drug exposure) of 6.1 ± 1.1 µM. For the same compound, the inhibition at 25 µM [4] was greater than 100%, the GI50 ([4]; 72 h drug exposure) was 3.8 ± 0.75 µM and the inhibition at 25 µM [5] was 77 ± 4%. It also gave a GI50 ([5]; NCI-H460, 72 h drug exposure) of 15 ± 2 µM, an inhibition at 25 µM [6] of 95 ± 4% and a GI50 ([6]; A-431, 72 h, 72 h drug exposure) of 13 ± 0.58 µM. The inhibition at 25 µM [7] was 81 ± 4%, the GI50 ([7]; DU-145, 72 h, 72 h drug exposure) was 13 ± 0.58 µM and the inhibition at 25 µM [8] was greater than 100%. For the same compound, the GI50 ([8]; 72 h drug exposure) was 3 ± 0.35 µM, the inhibition at 25 µM [9] was greater than 100% and the GI50 ([9]; 72 h drug exposure) was 12 ± 0.67 µM. The inhibition at 25 µM [10] was greater than 100%, the GI50 ([10]; 72 h drug exposure) was 4.8 ± 0.91 µM and the inhibition at 25 µM [11] was greater than 100%. The GI50 ([11]; 72 h drug exposure) was 3.9 ± 0.54 µM, the inhibition at 25 µM [12] was 62 ± 4% and the GI50 ([12]; normal breast cell line, 72 h drug exposure) was 19 ± 1.3 µM. The “cytotoxicity spectrum across the panel” value [13] was “broad-spectrum active”, the GI50 ([13]; average over the cell line panel, read-out: average GI50) was 10.2 µM and the GI50 ([13]; span over the cell line panel, read-out: GI50 values across the cell lines examined (range)) was 3 to 15 µM. For the same compound, the melting point was 135 to 137 °C.
With COC1=CC(=O)C(OC)=C(c2ccc3ccccc3c2)C1=O [compound 24, 2,5-Dimethoxy-3-(naphthalene-3-yl)cycloheza-2,5-diene-1,4-dione] the inhibition at 25 µM [1] was less than 10%, the inhibition at 25 µM [2] was 15 ± 4% and the inhibition at 25 µM [3] was 22 ± 6%. It also gave an inhibition at 25 µM [4] of 54 ± 15%, an inhibition at 25 µM [5] of 12 ± 4% and an inhibition at 25 µM [6] of less than 10%. For the same compound, the inhibition at 25 µM [7] was 11%, the inhibition at 25 µM [8] was 65 ± 20% and the inhibition at 25 µM [9] was 20 ± 4%. The inhibition at 25 µM [10] was less than 10%, the inhibition at 25 µM [11] was 31 ± 10% and the inhibition at 25 µM [12] was 13 ± 6%. For the same compound, the “activity” value [13] was “not sufficiently active; also recorded: inactive” and the melting point was 137 to 139 °C.
For CCCNC1=C(c2ccccc2)C(=O)C(NCCC)=C(c2cccc3ccccc23)C1=O [compound 42, 2-(Naphthalene-1-yl)-5-phenyl-3,6-bis-(propylamino)cyclohexa-2,5-diene-1,4-dione], the inhibition at 25 µM [1] was 71 ± 3%, the inhibition at 25 µM [2] was 69 ± 4% and the inhibition at 25 µM [3] was 77 ± 4%. It also gave an inhibition at 25 µM [4] of 79 ± 1%, an inhibition at 25 µM [5] of 63 ± 3% and an inhibition at 25 µM [6] of 81 ± 1%. It also gave an inhibition at 25 µM [7] of 70 ± 3%, an inhibition at 25 µM [8] of 56 ± 4% and an inhibition at 25 µM [9] of 52 ± 1%. For the same compound, the inhibition at 25 µM [10] was 76 ± 2%, the inhibition at 25 µM [11] was 56 ± 9% and the inhibition at 25 µM [12] was 76 ± 1%. It also gave a melting point of 226 to 228 °C.
